Consider 31 molecules from patent publication US9624200B2, “Therapeutic piperazines” (DART NEUROSCIENCE (CAYMAN) LTD., priority 2006, dated 2017).

Where only a bound is given, the exact number is not on record here.

The assay relates to PDE4 from human U-937 cells. The assay can be described thus: PDE4 Inhibition Assay. It counts as biochemical. The settings on record: 1 μM cAMP, [3H]-cAMP, read-out: Potency Class (Inhibitory Concentration) in the PDE4 assay. The protocol:
PDE4 from human U-937 cells was used (see T. J. Torphy, et al., J. Pharmacol. Exp. Ther., 1992, 263, 1195-1205). Test compound at various concentration and/or vehicle was preincubated with 2 μg/ml enzyme in Tris-HCl buffer pH 7.5 for 15 minutes at 25° C. The reaction was initiated by addition of 1 1 μM cAMP and 0.01 1 μM [^3H]-cAMP for another 20 minute incubation period and terminated at 100° C. The resulting [^3H]-AMP was converted to [^3H]-adenosine by addition of snake venom nucleotidase and separated by AG1-X2 resin. An aliquot was removed and counted to determine the amount of [^3H]-adenosine formed. Results were converted to percent inhibition and IC so determined using XLfit from IDBS (ID Business Solutions Ltd., 2 Occam Court, Surrey Research Park, Guildford, Surrey, GU2 7QB UK).
Representative compounds of the present invention were tested and found to have significant PDE4 inhibition in this assay.
For the molecule `COc1ccc(N2CCN(C(=O)C3(O)CC3)[C@@H](Cc3ccccc3)C2)cc1OC1CCCC1` [Compound 283, (S)-(2-benzyl-4-(3-(cyclopentyloxy)-4-methoxyphenyl)piperazin-1-yl)(1-hydroxycyclopropyl)methanone], the IC50 fell in the range of 200 to 1000 nM.

Regarding `COc1ccc(N2CCN(C(=O)COC(C)=O)[C@@H](Cc3ccccc3)C2)cc1OC1CCCC1` [Compound 284, (S)-2-(2-benzyl-4-(3-(cyclopentyloxy)-4-methoxyphenyl)piperazin-1-yl)-2-oxoethyl acetate], the IC50 was greater than 1000 nM.

`COc1ccc(N2CCN(C(=O)c3ccc(O)c(O)c3)[C@@H](Cc3ccccc3)C2)cc1OC1CCCC1` [Compound 286, (S)-(2-benzyl-4-(3-(cyclopentyloxy)-4-methoxyphenyl)piperazin-1-yl)(3,4-dihydroxyphenyl)methanone]: the IC50 is greater than 1000 nM.

With `COc1ccc(N2CCN(C(=O)c3c[nH]c(=O)[nH]3)[C@@H](Cc3ccccc3)C2)cc1OC1CCCC1` [Compound 288, (S)-4-(2-benzyl-4-(3-(cyclopentyloxy)-4-methoxyphenyl)piperazine-1-carbonyl)-1H-imidazol-2(3H)-one], the IC50 was in the range of 200 to 1000 nM.

As for `COc1ccc(N2CCN(C(=O)Cn3ccnc3C)[C@@H](Cc3ccccc3)C2)cc1OC1CCCC1` [Compound 289, (S)-1-(2-benzyl-4-(3-(cyclopentyloxy)-4-methoxyphenyl)piperazin-1-yl)-2-(2-methyl-1H-imidazol-1-yl)ethanone], the IC50 was greater than 1000 nM.

`COc1ccc(N2CCN(C(=O)Cn3ccnc3)[C@@H](Cc3ccccc3)C2)cc1OC1CCCC1` [Compound 290, (S)-1-(2-benzyl-4-(3-(cyclopentyloxy)-4-methoxyphenyl)piperazin-1-yl)-2-(1H-imidazol-1-yl)ethanone]: the IC50 was greater than 1000 nM.

For `COc1ccc(N2CCN(C(=O)Cc3cncs3)[C@@H](Cc3ccccc3)C2)cc1OC1CCCC1` [Compound 291, (S)-1-(2-benzyl-4-(3-(cyclopentyloxy)-4-methoxyphenyl)piperazin-1-yl)-2-(thiazol-5-yl)ethanone], the IC50 is 200 to 1000 nM.

In the case of `COc1ccc(N2CCN(C(=O)[C@@H]3CNC(=O)N3)[C@@H](Cc3ccccc3)C2)cc1OC1CCCC1` [Compound 292, (S)-4-((S)-2-benzyl-4-(3-(cyclopentyloxy)-4-methoxyphenyl)piperazine-1-carbonyl)imidazolidin-2-one], the IC50 is less than 200 nM.

`COc1ccc(N2CCN(C(=O)Cc3n[nH]c(=O)[nH]3)[C@@H](Cc3ccccc3)C2)cc1OC1CCCC1` [Compound 293, (S)-3-(2-(2-benzyl-4-(3-(cyclopentyloxy)-4-methoxyphenyl)piperazin-1-yl)-2-oxoethyl)-1H-1,2,4-triazol-5(4H)-one]: the IC50 lay in the range of 200 to 1000 nM.

With `COc1ccc(N2CCN(C(=O)Cc3nn[nH]n3)[C@@H](Cc3ccccc3)C2)cc1OC1CCCC1` [Compound 294, (S)-1-(2-benzyl-4-(3-(cyclopentyloxy)-4-methoxyphenyl)piperazin-1-yl)-2-(2H-tetrazol-5-yl)ethanone], the IC50 was less than 200 nM.

Consider `COc1ccc(N2CCN(C(=O)[C@@H]3CCC(=O)O3)[C@@H](Cc3ccccc3)C2)cc1OC1CCCC1` [Compound 295, (S)-5-((S)-2-benzyl-4-(3-(cyclopentyloxy)-4-methoxyphenyl)piperazine-1-carbonyl)dihydrofuran-2 (3H)-one], for which the IC50 was greater than 1000 nM.

On to `COc1ccc(N2CCN(C(=O)[C@H]3CCC(=O)O3)[C@@H](Cc3ccccc3)C2)cc1OC1CCCC1` [Compound 296, (R)-5-((S)-2-benzyl-4-(3-(cyclopentyloxy)-4-methoxyphenyl)piperazine-1-carbonyl)dihydrofuran-2(3H)-one], for which the IC50 is greater than 1000 nM.

Regarding `COc1ccc(N2CCN(C(=O)C3(O)CCC3)[C@@H](Cc3ccccc3)C2)cc1OC1CCCC1` [Compound 297, (S)-(2-benzyl-4-(3-(cyclopentyloxy)-4-methoxyphenyl)piperazin-1-yl)(1-hydroxycyclobutyl)methanone], the IC50 lay within 200 to 1000 nM.

For the molecule `COc1ccc(N2CCN(C(=O)Cc3sc(C)nc3C)[C@@H](Cc3ccccc3)C2)cc1OC1CCCC1` [Compound 298, (S)-1-(2-benzyl-4-(3-(cyclopentyloxy)-4-methoxyphenyl)piperazin-1-yl)-2-(2,4-dimethylthiazol-5-yl)ethanone], the IC50 was greater than 1000 nM.

Regarding `COc1ccc(N2CCN(C(=O)C3CNC(=O)C3)[C@@H](Cc3ccccc3)C2)cc1OC1CCCC1` (stereo partly drawn) [Compound 299, 4-((S)-2-benzyl-4-(3-(cyclopentyloxy)-4-methoxyphenyl)piperazine-1-carbonyl)pyrrolidin-2-one], the IC50 lay within 200 to 1000 nM.

Take `COc1ccc(N2CCN(C(=O)Cc3ncc[nH]3)[C@@H](Cc3ccccc3)C2)cc1OC1CCCC1` [Compound 301, (S)-1-(2-benzyl-4-(3-(cyclopentyloxy)-4-methoxyphenyl)piperazin-1-yl)-2-(1H-imidazol-2-yl)ethanone]: the IC50 was less than 200 nM.

As to `COc1ccc(N2CCN(C(=O)C(=O)c3ccco3)[C@@H](Cc3ccccc3)C2)cc1OC1CCCC1` [Compound 302, (S)-1-(2-benzyl-4-(3-(cyclopentyloxy)-4-methoxyphenyl)piperazin-1-yl)-2-(furan-2-yl)ethane-1,2-dione], the IC50 fell in the range of 200 to 1000 nM.

As for `COc1ccc(N2CCN(C(=O)Cc3c[nH]cn3)[C@@H](Cc3ccccc3)C2)cc1OC1CCC1` [Compound 303, (S)-1-(2-benzyl-4-(3-cyclobutoxy-4-methoxyphenyl)piperazin-1-yl)-2-(1H-imidazol-4-yl)ethanone], the IC50 is less than 200 nM.

As for `COc1ccc(N2CCN(C(=O)c3cc[nH]n3)[C@@H](Cc3ccccc3)C2)cc1OC1CCCC1` [Compound 304, (S)-(2-benzyl-4-(3-(cyclopentyloxy)-4-methoxyphenyl)piperazin-1-yl)(1H-pyrazol-3-yl)methanone], the IC50 is greater than 1000 nM.

For `COc1ccc(N2CCN(C(=O)Cc3cc(C)[nH]n3)[C@@H](Cc3ccccc3)C2)cc1OC1CCCC1` [Compound 305, (S)-1-(2-benzyl-4-(3-(cyclopentyloxy)-4-methoxyphenyl)piperazin-1-yl)-2-(5-methyl-1H-pyrazol-3-yl)ethanone], the IC50 is less than 200 nM.

Turning to `COc1ccc(N2CCN(C(=O)Cc3ccc[nH]3)[C@@H](Cc3ccccc3)C2)cc1OC1CCCC1` [Compound 306, (S)-1-(2-benzyl-4-(3-(cyclopentyloxy)-4-methoxyphenyl)piperazin-1-yl)-2-(1H-pyrrol-2-yl)ethanone], the IC50 was in the range of 200 to 1000 nM.

`COc1ccc(N2CCN(C(=O)Cc3cc[nH]c3)[C@@H](Cc3ccccc3)C2)cc1OC1CCCC1` [Compound 307, (S)-1-(2-benzyl-4-(3-(cyclopentyloxy)-4-methoxyphenyl)piperazin-1-yl)-2-(1H-pyrrol-3-yl)ethanone]: the IC50 is less than 200 nM.

As for `COc1ccc(N2CCN(C(=O)Cc3nc(C)cs3)[C@@H](Cc3ccccc3)C2)cc1OC1CCCC1` [Compound 308, (S)-1-(2-benzyl-4-(3-(cyclopentyloxy)-4-methoxyphenyl)piperazin-1-yl)-2-(4-methylthiazol-2-yl)ethanone], the IC50 is less than 200 nM.

With `COc1ccc(N2CCN(C(=O)Cc3ccco3)[C@@H](Cc3ccccc3)C2)cc1OC1CCC1` [Compound 314, (S)-1-(2-benzyl-4-(3-cyclobutoxy-4-methoxyphenyl)piperazin-1-yl)-2-(furan-2-yl)ethanone], the IC50 fell in the range of 200 to 1000 nM.

`COc1ccc(N2CCN(C(=O)C3(C(=O)O)CCC3)[C@@H](Cc3ccccc3)C2)cc1OC1CCC1` [Compound 315, (S)-1-(2-benzyl-4-(3-cyclobutoxy-4-methoxyphenyl)piperazine-1-carbonyl)cyclobutanecarboxylic acid]: the IC50 is less than 200 nM.

In the case of `COc1ccc(N2CCN(C(=O)Cc3cn(C)cn3)[C@@H](Cc3ccccc3)C2)cc1OC1CCCC1` [Compound 317, (S)-1-(2-benzyl-4-(3-(cyclopentyloxy)-4-methoxyphenyl)piperazin-1-yl)-2-(1-methyl-1H-imidazol-4-yl)ethanone], the IC50 was less than 200 nM.

For `COc1ccc(N2CCN(C(=O)Cc3cncn3C)[C@@H](Cc3ccccc3)C2)cc1OC1CCCC1` [Compound 318, (S)-1-(2-benzyl-4-(3-(cyclopentyloxy)-4-methoxyphenyl)piperazin-1-yl)-2-(1-methyl-1H-imidazol-5-yl)ethanone], the IC50 is 200 to 1000 nM.

On to `COc1ccc(N2CCN(C(=O)CN3CC[C@H](O)C3)[C@@H](Cc3ccccc3)C2)cc1OC1CCCC1` [Compound 319, 1-((S)-2-benzyl-4-(3-(cyclopentyloxy)-4-methoxyphenyl)piperazin-1-yl)-2-((S)-3-hydroxypyrrolidin-1-yl)ethanone], for which the IC50 lay within 200 to 1000 nM.

As to `COc1ccc(N2CCN(C(=O)CN3CC[C@@H](O)C3)[C@@H](Cc3ccccc3)C2)cc1OC1CCCC1` [Compound 320, 1-((S)-2-benzyl-4-(3-(cyclopentyloxy)-4-methoxyphenyl)piperazin-1-yl)-2-((R)-3-hydroxypyrrolidin-1-yl)ethanone], the IC50 was greater than 1000 nM.

Take `COc1ccc(N2CCN(C(=O)Cc3n[nH]c([N+](=O)[O-])n3)[C@@H](Cc3ccccc3)C2)cc1OC1CCCC1` [Compound 325, (S)-1-(2-benzyl-4-(3-(cyclopentyloxy)-4-methoxyphenyl)piperazin-1-yl)-2-(5-nitro-1H-1,2,4-triazol-3-yl)ethanone]: the IC50 was less than 200 nM.

As for `COc1ccc(N2CCN(C(=O)Cc3cnc[nH]3)[C@@H](Cc3ccccc3)C2)cc1OC(C)C` [Compound 327, (S)-1-(2-benzyl-4-(3-isopropoxy-4-methoxyphenyl)piperazin-1-yl)-2-(1H-imidazol-5-yl)ethanone], the IC50 is less than 200 nM.
